Data from PMC10196870, “Structural insights into the substrate recognition of serine palmitoyltransferase from Sphingobacterium multivorum” (The Journal of Biological Chemistry, 2023).
“Also recorded” adds a separate entry of the source. Marks after values point to notes of the source that are not given here.

Tests used:
[1] = target: T1, Sphingobacterium multivorum SPT (Sphingobacterium multivorum, UniProt A7BFV6); assay: Spectroscopic titration of SPT with amino acids (dissociation constants, external aldimine formation); format: binding; settings: 10 μM SPT, pH 7.5, 25 °C
T1 construct: harboring the plasmid that express the full length of S. multivorum SPT; made in house; host or cells: Escherichia coli BL21 (DE3) pLysS
Procedure: Next, binding of the amino acids to the S. multivorum SPT was examined by spectroscopic titration.
Figure 3 Spectroscopic analysis of the reaction of the Sphingobacterium multivorum SPT with L-Ala or L-Thr.A, the UV/vis absorption spectra of SPT (10 μM) in the presence of 800 mM L-Ala were measured at time intervals of 10 min for 500 min. Each line numbered 1 to 12 corresponds to the spectrum at 0, 10, 20, 30, 40, 50, 60, 80, 90, 110, 150, and 500 min, respectively, after SPT was mixed with L-Ala. […] B, spectroscopic titration of SPT with L-Ala. Absorbance at 420 nm in the presence of 0, 50, 100, 200, 400, and 600 mM L-Ala at 0 min was measured, and apparent molar absorptivities at 420 nm were plotted against L-Ala concentrations. […] C, absorption spectra of SPT (10 μM) in the presence of 0, 1.3, 3.7, 7.4, 12.2, 18.1, 24.9, 32.7, 41.3, and 51.6 mM L-Thr (lines 1–10, respectively). […] SPT, serine palmitoyltransferase.
The titration assay was carried out by using 10 μM SPT in 100 mM potassium phosphate and 0.1 mM EDTA, pH 7.5, at 25 °C. The changes of the 422 nm absorption intensities of SPT upon addition of amino acids were plotted against the final concentrations of the amino acids, and the Kd values were calculated by fitting to a hyperbolic saturation curve using Igor Pro 6.37. software. UV/vis spectra of SPT were recorded with a Hitachi U-3310 spectrophotometer.

[2] = target: T1, Sphingobacterium multivorum SPT; assay: TLC analysis of LCB formation from amino acids by SPT (ninhydrin); format: biochemical; settings: 200 mM amino acid, 1 mM PalCoA, 100 μM SPT, pH 7.5, 60 min, 37 °C
Source text: Reaction products were extracted with solvents and separated by TLC. […] Each LCB product was quantified by the fluorescence intensity based on the standard curve obtained by using the corresponding authentic compound.

[3] = target: T1, Sphingobacterium multivorum SPT; assay: Steady-state kinetic analysis of SPT (LCB production from amino acid and PalCoA, quantified by TLC fluorescence); format: biochemical; settings: 1 mM PalCoA; for Kmapp / kcatapp: mean ± SD
Procedure: The assay was performed as follows; 200 mM of amino acid (glycine, L-Ala, L-Ser, L-Hse, or L-Thr) was incubated with 1 mM PalCoA and 100 μM SPT in 100 μl of 100 mM potassium phosphate, pH 7.5, for 60 min at 37 °C. The reactions were terminated by addition of the equal volume of 2 N ammonia. Lipids were extracted by successive addition and mixing of 750 μl of chloroform/methanol (1:2, v/v), 250 μl of chloroform, and 250 μl of 1% KCl. Phases were separated by centrifugation, and the organic phase was recovered. The aqueous phase was reextracted with 200 μl of chloroform, and, after centrifugation, the organic phase was combined with the organic phase from the first extraction. The organic phase was washed with water/chloroform/methanol (47:48:3, v/v), dried, and suspended in chloroform/methanol (2:1, v/v). The extracted lipids were resolved by normal-phase TLC on Silica Gel 60 high-performance TLC plates (Merck) with chloroform/methanol/2 N ammonia (40:10:1, v/v) or chloroform/methanol/triethanol amine (95:5:10, v/v) and visualized by spraying with ninhydrin reagent followed by gentle heating. For the quantitative analysis, the UV-fluorescence intensities of the reaction products on TLC plates were visualized by a Fusion chemiluminescence imaging system using a UV-light box and analyzed by a FUSION Capt software (VILBER; https://www.garvan.org.au/research/capabilities/molecular-genetics/ documents/fusion_manual_2016.pdf).
Steady-state kinetic parameters were determined by varying the concentrations of the amino acid substrate in the presence of 1 mM PalCoA in 100 μl of 100 mM potassium phosphate, pH 7.5, at 37 °C. The concentration of SPT and the incubation time were 1 μM and 10 min for L-Ser; 5 μM and 10 min for L-Hse; 20 μM and 30 min for L-Ala; and 100 μM and 120 min for Gly. The reaction termination, lipid extraction, TLC analysis, and quantification of the reaction products on TLC plates were described above. The apparent velocities (min^–1) versus amino acid concentrations (mM) plots were fitted to the Michaelis–Menten equation, v = Vmax[S]/(Km+[S]), by nonlinear regression using the Igor Pro 6.37 (https://www.wavemetrics.com/forum/news-and-announcements/igor-pro-637-released). software (Wave Matrix Inc.) to determine the apparent kinetic parameters, kcatapp and Kmapp , of SPT for each amino acid substrate.
The reactions were carried out in the presence of 1 mM PalCoA as described in Experimental procedures. Apparent rate constants, obtained by dividing the rate of the LCB production by the concentration of the enzyme, were plotted against concentrations of amino acid substrate, L-Ser (A), L-Hse (B), L-Ala (C), or glycine (D). The plots were fitted to the equation of the Michaelis–Menten mechanism, v = Vmax[S]/(Km+[S]), by nonlinear regression using the software Igor Pro (ver 6.37, WaveMetrics, Lake Oswego, OR), and the Kmappand kcatapp of SPT for each amino acid substrate were calculated. Solid line represents a theoretical curve based on the above equation. Each data point is a mean with the error bar showing standard deviation from at least three independent experiments.

[4] = target: T1, Sphingobacterium multivorum SPT; assay: UV/vis time course of conversion of PLP and L-Ala to PMP and pyruvate by SPT (abortive transamination); format: biochemical
Procedure: Next, binding of the amino acids to the S. multivorum SPT was examined by spectroscopic titration. […] Therefore, the absorption at 420 nm just after SPT was mixed with L-Ala was measured and plotted against concentrations of L-Ala (Fig. 3B), and the Kd value for L-Ala was estimated as 65 ± 10 mM (Table 1). For the other amino acids, only spectral changes corresponding to the external aldimine formation between PLP and the amino acids were observed, and side reactions such as PMP formation were not detected.
Figure 3 Spectroscopic analysis of the reaction of the Sphingobacterium multivorum SPT with L-Ala or L-Thr.A, the UV/vis absorption spectra of SPT (10 μM) in the presence of 800 mM L-Ala were measured at time intervals of 10 min for 500 min. Each line numbered 1 to 12 corresponds to the spectrum at 0, 10, 20, 30, 40, 50, 60, 80, 90, 110, 150, and 500 min, respectively, after SPT was mixed with L-Ala. […] The lines represent theoretical fits to a single-exponential equation ( y=A×e^−k⋅t ), where k is 0.029 ± 0.00024 min^–1. B, spectroscopic titration of SPT with L-Ala. Absorbance at 420 nm in the presence of 0, 50, 100, 200, 400, and 600 mM L-Ala at 0 min was measured, and apparent molar absorptivities at 420 nm were plotted against L-Ala concentrations. […]

[5] = 100 mM potassium phosphate, 0.1 mM EDTA, absorption at 422 nm, mean ± SD
[6] = 100 mM potassium phosphate pH 7.5, 37 °C
[7] = reaction mixture supplemented with 0.1 mM PLP, pH 7.5, 37 °C

T1 sequence (A7BFV6 whole entry): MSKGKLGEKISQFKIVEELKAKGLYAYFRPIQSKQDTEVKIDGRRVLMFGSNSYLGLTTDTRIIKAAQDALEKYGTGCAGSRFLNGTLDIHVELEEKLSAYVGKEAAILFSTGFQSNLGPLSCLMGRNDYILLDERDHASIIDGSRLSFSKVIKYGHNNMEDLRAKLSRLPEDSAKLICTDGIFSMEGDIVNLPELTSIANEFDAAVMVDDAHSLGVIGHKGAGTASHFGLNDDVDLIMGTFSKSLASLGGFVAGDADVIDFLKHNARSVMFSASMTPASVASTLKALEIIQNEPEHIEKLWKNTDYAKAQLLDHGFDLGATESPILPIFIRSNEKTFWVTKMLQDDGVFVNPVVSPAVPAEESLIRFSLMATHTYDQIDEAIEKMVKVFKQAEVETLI

Row | SMILES | Kd [1, 5] | LCB formation (reaction product on TLC) [2] | Kmapp, fold larger than that for L-Ser [3] | kcatapp, fold smaller than that for L-Ser [3] | Kmapp [3, 6] | kcatapp [3, 6] | kcatapp/Kmapp (apparent catalytic efficiency) ([3]; pH 7.5, 37 °C) | Kd ([1]; absorption intensity at 424 nm immediately after SPT was mixed with L-Ala (text: 420 nm)) | half-life τ1/2 of conversion of PLP and L-Ala to PMP and pyruvate ([4]; SPT (10 μM) incubated with 800 mM L-Ala) | rate constant k of single-exponential change in absorption at 420 nm and 328 nm ([4]; SPT (10 μM), 800 mM L-Ala) | Kmapp [3, 7] | kcatapp [3, 7]
1 | NCC(=O)O [Gly, glycine] | 71 ± 5.5 mM | converted to corresponding LCBs | 21 fold | 36,000 fold | 77 ± 8.1 mM | 0.008 ± 0.002 min^–1 | 0.0001 min^–1 mM^–1 | – | – | – | – | –
2 | C[C@@H](O)[C@H](N)C(=O)O [L-Thr, L-threonine] | 8.2 ± 1 mM | not detected; also recorded: nonproductive ligand | 23 fold | – | – | – | – | – | – | – | – | –
3 | C[C@H](N)C(=O)O [L-Ala, L-alanine] | – | converted to corresponding LCBs | – | – | – | – | 0.0037 min^–1 mM^–1 | 65 ± 10 mM | 24.0 ± 0.2 min | 0.029 ± 0.00024 min^–1 | 110 ± 9.0 ^c mM | 0.42 ± 0.011 ^c min^–1
4 | N[C@@H](CCO)C(=O)O [L-Hse, L-homoserine] | 3.6 ± 0.2 mM | converted to corresponding LCBs | – | – | 82 ± 14 mM | 4.5 ± 0.28 min^–1 | 0.055 min^–1 mM^–1 | – | – | – | – | –
5 | NC(CO)(CO)CO [Tris, tris(hydroxymethyl)aminomethane] | 40 ± 5.6 mM | – | – | – | – | – | – | – | – | – | – | –
6 | N[C@@H](CO)C(=O)O [L-Ser, L-serine] | 0.45 ± 0.05 mM | – | – | – | 3.6 ± 0.87 mM | 13 ± 1.0 min^–1 | 3.6 min^–1 mM^–1 | – | – | – | – | –
